Measured values as given in ChEMBL document CHEMBL1208763, “Discovery of potent, selective, and orally bioavailable 3H-spiro[isobenzofuran-1,4'-piperidine] based melanocortin subtype-4 receptor agonists” (Bioorg Med Chem Lett, 2010).

Experiment: in vivo
Conditions: Sprague-Dawley, rat, po, 4 mg/kg

SMILES | bioavailability
CC(C)(C#N)[C@H]1OC2(CCN(C(=O)[C@@H]3CN(C4CCOCC4)C[C@H]3c3ccc(F)cc3F)CC2)c2cc(F)c(Cl)cc21 | 23%
CC(=O)NC(C)(C)[C@H]1OC2(CCN(C(=O)[C@@H]3CN(C4CCOCC4)C[C@H]3c3ccc(F)cc3F)CC2)c2cc(Cl)c(C)cc21 | 26%
